Results on 17 compounds are retold here after ChEMBL document CHEMBL1821624, “Synthesis, evaluation against Leishmania amazonensis and cytotoxicity assays in macrophages of sixteen new congeners Morita-Baylis-Hillman adducts” (Eur J Med Chem, 2011).

Series [1] deals with Leishmania amazonensis. Briefly: Antileishmanial activity against Leishmania amazonensis. Format: functional, organism-based.
Series [2] in a line: Selectivity index, ratio of CC50 for Swiss mouse peritoneal macrophages to IC50 for Leishmania amazonensis IFLA/BR/67/PH8 promastigotes. In kind it is functional.
For series [3], the system named is Leishmania amazonensis. Briefly: Antileishmanial activity against Leishmania amazonensis IFLA/BR/67/PH8 promastigotes […] assessed as inhibition of parasite growth after 72 hrs by MTT assay. In kind it is functional, organism-based. The settings on record: IFLA/BR/67/PH8, 72 h. Background: Formazan colour is commonly taken as a measure of viable cells.

Series [4] can be described thus: Cytotoxicity against Swiss mouse peritoneal macrophages after 24 hrs by MTT assay. In kind it is cell-based, Peritoneal macrophage cell.

What is called IC50 is the concentration that gives 50% inhibition. In turn, `C=C(C(=O)OC)C(O)c1ccccc1[N+](=O)[O-]` (centres undefined) displayed an IC50 with Leishmania amazonensis [1] of 62 µM.
In general, CC50 refers to the concentration giving 50% cytotoxicity. The low end stands for harm at low concentration, the high end for better tolerance by the cells. Regarding `C=C(C(=O)OCCC)C(O)c1ccccc1[N+](=O)[O-]` (racemic), in series [2], the “Ratio CC50/IC50” value was 4.75. Further, the IC50 in the series on Leishmania amazonensis [3] worked out at 28.4 µM. Besides, half-maximal cytotoxicity in series [4] (CC50 at 24 h) was put at 135 µM.
On to `C=C(C(=O)OCCC)C(O)c1cccc([N+](=O)[O-])c1` (racemic), for which, in series [2], the “Ratio CC50/IC50” value was determined as 1.57. Moreover, the IC50 in the series with Leishmania amazonensis [3] was 72.2 µM. For the same compound, the midpoint of cytotoxicity in series [4], the CC50 at 24 h, lay at 114 µM.
On to `C=C(C(=O)OCCC)C(O)c1ccc([N+](=O)[O-])cc1` (racemic), for which, in series [2], the “Ratio CC50/IC50” value is 2.33. Further, the IC50 in the series on Leishmania amazonensis [3] amounted to 52 µM. The same compound came in with a CC50 at 24 h in series [4] of 122 µM.
Consider `C=C(C(=O)OCCC)C(O)c1ccccn1` (racemic), for which, in series [2], the “Ratio CC50/IC50” value is given as 3.68. Further, the IC50 in the series with Leishmania amazonensis [3] was found to be 194 µM. In series [4], this compound showed a CC50 at 24 h of 715 µM.
On to `C=C(C(=O)OCCC)C(O)c1cccnc1` (racemic), for which, in series [2], the “Ratio CC50/IC50” value is 1.81. Moreover, the IC50 in the series on Leishmania amazonensis [3] is 211 µM. The compound further registered a CC50 at 24 h in series [4] of 384 µM.
As for `C=C(C(=O)OCCC)C(O)c1ccncc1` (racemic), in series [2], the “Ratio CC50/IC50” value is reported as 1.83. Moreover, the IC50 in the series on Leishmania amazonensis [3] came out at 149 µM. The compound also had a 50% cytotoxic concentration (CC50) at 24 h in series [4] of 272 µM.
Turning to `C=C(C(=O)OCCC)C(O)c1ccc2ccccc2c1` (racemic), the “Ratio CC50/IC50” value in series [2] was 2.59. Further, in the series with Leishmania amazonensis [3], the IC50 is 54.5 µM. The same compound gave a CC50 at 24 h in series [4] of 149 µM.
Take `C=C(C(=O)OCCC)C(O)c1ccc(Br)cc1` (racemic): in series [2], the “Ratio CC50/IC50” value is given as 1.67. Besides, the IC50 with Leishmania amazonensis [3] was 74.7 µM. In series [4], this compound gave a CC50 at 24 h of 125 µM.
Take `C=C(C(=O)OCCO)C(O)c1ccccc1[N+](=O)[O-]` (racemic): the “Ratio CC50/IC50” value in series [2] is listed as 5.43. Also, the IC50 in the series on Leishmania amazonensis [3] is 20.5 µM. The compound further had a CC50 at 24 h in series [4] of 112 µM.
On the same counts, the results for `C=C(C(=O)OCCO)C(O)c1cccc([N+](=O)[O-])c1` (racemic) are 1.06, 64.6 µM and 69 µM.
With `C=C(C(=O)OCCO)C(O)c1ccc([N+](=O)[O-])cc1` (racemic), in series [2], the “Ratio CC50/IC50” value came out at 0.88. Besides, in the series with Leishmania amazonensis [3], the IC50 was found to be 53 µM. This compound displayed a CC50 at 24 h in series [4] of 46.9 µM.
On the same counts, the results for `C=C(C(=O)OCCO)C(O)c1ccccn1` (racemic) are 2.81, 266 µM and 749 µM.
Taken in the same sequence, the figures for `C=C(C(=O)OCCO)C(O)c1cccnc1` (racemic) were 1.29, 324 µM and 418 µM.
`C=C(C(=O)OCCO)C(O)c1ccncc1` (racemic): the “Ratio CC50/IC50” value in series [2] is 1.2. The IC50 in the series with Leishmania amazonensis [3] amounted to 382 µM. Moreover, it took 458 µM to reach half-maximal cytotoxicity in series [4] (CC50 at 24 h).
Taken in the same sequence, the figures for `C=C(C(=O)OCCO)C(O)c1ccc2ccccc2c1` (racemic) were 2.24, 52.5 µM and 118 µM.
Take `C=C(C(=O)OCCO)C(O)c1ccc(Br)cc1` (racemic): the “Ratio CC50/IC50” value in series [2] worked out at 2.77. The IC50 in the series with Leishmania amazonensis [3] was 56.7 µM. Besides, the midpoint of cytotoxicity in series [4], the CC50 at 24 h, lay at 157 µM.
